# Measurements from PMC5413018, “Neuropeptide S (NPS) variants modify the signaling and risk effects of NPS Receptor 1 (NPSR1) variants in asthma” (PLoS ONE, 2017).
# Tests used:
# [1] = test system: phagocytosis; conditions: cited from earlier work
# Excerpt: (§1) In our cells assays, the magnitude of the mRNA expression of NR4A1 was clearly dependent on the combination of NPS and NPSR1 variants (Fig 2). NR4A1 is expressed in lymphocytes upon stimulation and is anti-inflammatory. NR4A1 has been recently described as a key regulator of catecholamine production by macrophages linking sympathetic stress response and inflammation ...
# [2] = test system: serum pro-inflammatory cytokines; conditions: pigs, central and peripheral administration; cited from earlier work
# Excerpt: as §1
# [3] = test system: chemotaxis; conditions: cited from earlier work
# Excerpt: as §1
# [4] = target: T1, NPSR1-Ile(107) (Homo sapiens, UniProt Q6W5P4, N107I); assay: Real-time RT-PCR of NPSR1 downstream target genes in HEK293 cells, NPSR1-Ile(107); assay type: cell-based; parameters: expressed in transfected cells; host or cells: HEK293
# T1 sequence (Q6W5P4 1-371 N107I): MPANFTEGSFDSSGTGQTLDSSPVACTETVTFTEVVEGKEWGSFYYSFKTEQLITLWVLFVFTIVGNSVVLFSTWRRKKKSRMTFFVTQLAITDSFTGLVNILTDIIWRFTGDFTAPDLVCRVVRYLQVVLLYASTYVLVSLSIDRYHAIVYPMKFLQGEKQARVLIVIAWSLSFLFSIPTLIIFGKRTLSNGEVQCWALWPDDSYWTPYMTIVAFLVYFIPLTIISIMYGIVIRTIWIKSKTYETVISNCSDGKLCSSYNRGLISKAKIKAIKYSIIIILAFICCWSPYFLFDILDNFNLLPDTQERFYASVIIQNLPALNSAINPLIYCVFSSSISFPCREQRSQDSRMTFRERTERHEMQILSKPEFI
# Excerpt: The activation of CRE results in transcriptional changes of downstream target genes. To examine whether the observed differences in the promoter activity also affected gene expression, we measured the effects of NPS variants on known NPSR1 downstream target genes. NR4A1 (nuclear receptor subfamily 4, group A, member 1), FOS (FBJ murine osteosarcoma viral oncogene homolog), and chemokine ligands CXCL2 and CCL20 were selected as they were among the most influenced genes after NPS stimulation and their expression also differed between transcriptome comparisons of HEK293 cells expressing either NPSR1-Ile(107) or NPSR1-Asn(107). In the present study, HEK293 cells transiently transfected with either NPSR1-Ile(107) or NPSR1-Asn(107) coding variants were stimulated with 100 nM of either NPS-Val(6) or NPS-Leu(6) for 1, 3, 6, and 24 h, and changes in gene expression were analyzed with RT-PCR.
# Fig 2 Real time RT-PCR analysis of NPSR1 downstream target genes. […] GAPDH was used as the endogenous reference, and data are expressed as mean of triplicate samples. […] In all experiments, results were calculated with the comparative Ct method.
# Human embryonic kidney cells (HEK293) were cultured in MEM+GlutaMAX-1 medium (Gibco/Invitrogen) supplemented with 10% fetal calf serum (FCS) (Biosera), 1% sodium pyruvate, 1% non-essential amino acids and 1% penicillin/streptomycin (Gibco/Invitrogen). […] The HEK293 cell line was chosen for ligand-receptor studies because it is a well-established model for addressing numerous questions in basic biology and is easy to transfect and amenable of stringent quantitative assessment. […]
# The mRNA expression was measured with qRT-PCR using either SYBR Green (for NR4A1, FOS, IER3, and EGR1, the primer sequences are given in S5 Table) or TaqMAN assay (Hs00601975 for CXCL2 Hs00601975, Hs01011368 for CCL20, Hs01036497 for NPSR1 and Pre-Developed TaqMAN Assay Reagents, Part No. 4310884 for GAPDH; Applied Biosystems). […]
# [5] = test system: NPSR1; conditions: cited from earlier work
# Excerpt: To compare the bioactivities of the two NPS variants, we measured the dose-responses of NPSR1-Ile(107) and NPSR1-Asn(107) coding variants to either wildtype NPS-Val(6) or alternative NPS-Leu(6) in a luciferase assay dependent on the activation of a cAMP-response element (CRE). This assay was used since elevation of the intracellular cAMP levels activates cAMP response element binding protein (CREB) via […]. Activated CREB binds to CRE and induces the expression of downstream target ...
# [6] = HEK293 with NPSR1-Ile(107) or NPSR1-Asn(107), 100 nM NPS
substance,measurement,setting,value
"Neuropeptide S (SFRNGVGTGMKKTSFQRAKS; Neuropeptide S; UniProt P0C0P6 70-89, looked up) [NPS, Neuropeptide S, variant not specified at the place]",effects on phagocytosis (in words),[1],direct effects
same,levels of serum pro-inflammatory cytokines (in words),[2],could be activated
same,effects on chemotaxis (in words),[3],direct effects
same,downstream signaling in cells expressing NPSR1-Ile(107) vs NPSR1-Asn(107) (in words),"[4]; HEK293, 100 nM, compared with cells expressing NPSR1-Asn(107)",stronger downstream signaling
same,"time of mRNA induction of NR4A1, FOS and CXCL2",[4]; [6],1 h
same,time of up-regulation of CCL20 mRNA,[4]; [6],3 h
same,cAMP production on NPSR1 activation (in words),[5],increasing cAMP production
